Assay results taken from publication PMC7466261, “In Silico and In Vitro Analysis of Multifunctionality of Animal Food-Derived Peptides” (Foods, 2020).
Where two headings read alike, the source gives them in different places. Where a SMILES comes first, the peptide text is derived from it. Where no end group is shown, it is not given here.

Key:
[1] = target: T1, angiotensin-converting enzyme (ACE) (Oryctolagus cuniculus, UniProt P12822); experiment: ACE-inhibitory activity, fluorescence assay with Abz-Gly-Phe(NO2)-Pro; format: biochemical
T1 sequence (P12822 34-1310): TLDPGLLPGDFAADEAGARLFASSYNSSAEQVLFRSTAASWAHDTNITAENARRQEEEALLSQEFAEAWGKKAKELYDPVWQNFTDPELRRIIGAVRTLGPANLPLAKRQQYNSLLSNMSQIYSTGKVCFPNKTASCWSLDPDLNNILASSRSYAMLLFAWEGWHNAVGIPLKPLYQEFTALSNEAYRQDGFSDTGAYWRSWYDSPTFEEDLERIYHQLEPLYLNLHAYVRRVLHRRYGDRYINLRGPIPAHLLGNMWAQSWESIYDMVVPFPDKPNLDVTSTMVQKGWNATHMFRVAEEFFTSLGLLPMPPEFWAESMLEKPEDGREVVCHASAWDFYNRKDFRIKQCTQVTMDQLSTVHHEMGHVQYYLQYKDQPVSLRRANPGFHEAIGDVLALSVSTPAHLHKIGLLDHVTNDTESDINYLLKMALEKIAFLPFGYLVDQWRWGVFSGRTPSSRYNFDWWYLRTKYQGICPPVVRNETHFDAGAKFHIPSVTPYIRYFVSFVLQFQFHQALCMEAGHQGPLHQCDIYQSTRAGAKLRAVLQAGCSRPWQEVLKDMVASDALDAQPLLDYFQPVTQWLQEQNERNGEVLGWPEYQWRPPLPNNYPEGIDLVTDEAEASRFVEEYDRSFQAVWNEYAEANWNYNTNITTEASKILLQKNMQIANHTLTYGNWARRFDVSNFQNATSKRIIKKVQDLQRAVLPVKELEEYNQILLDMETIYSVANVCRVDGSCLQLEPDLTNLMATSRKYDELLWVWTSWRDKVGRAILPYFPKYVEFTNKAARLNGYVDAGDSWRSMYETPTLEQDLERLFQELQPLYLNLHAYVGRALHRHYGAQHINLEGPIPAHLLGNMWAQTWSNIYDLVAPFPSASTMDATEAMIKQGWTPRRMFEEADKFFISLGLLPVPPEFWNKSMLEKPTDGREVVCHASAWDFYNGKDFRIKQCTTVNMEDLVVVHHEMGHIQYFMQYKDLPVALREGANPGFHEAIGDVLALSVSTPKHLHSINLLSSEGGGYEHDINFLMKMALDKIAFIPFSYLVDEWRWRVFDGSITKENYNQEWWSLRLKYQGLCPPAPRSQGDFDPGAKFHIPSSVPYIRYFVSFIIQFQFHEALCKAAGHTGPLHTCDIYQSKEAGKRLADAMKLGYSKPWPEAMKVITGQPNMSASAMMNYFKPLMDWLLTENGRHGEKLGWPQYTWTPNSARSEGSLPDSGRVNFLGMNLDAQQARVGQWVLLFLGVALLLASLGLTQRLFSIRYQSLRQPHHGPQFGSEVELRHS
Description: ACE (1 U/mL) was diluted (0.04 U/mL) in 150 mM Tris buffer containing 0.1 μM ZnCl2 (pH 8.3). Forty microliters of sample (or MilliQ water for blank and control) were added to a black multi-well plate (Porvair, Leatherhead, UK). Then, 40 μL of ACE were added, and the reaction started after the addition of 160 μL of the substrate. The plate was incubated at 37 °C for 30 min, and the fluorescence was measured in a FLUOstar OPTIMA plate reader (BMG Labtechnologies GmbH, Offenburg, Germany) with 320 nm excitation and 420 nm emission filters.

Caco-2 cells [2] = experiment: Cell viability (MTT), direct effects, Caco-2; format: cell-based, human; conditions: Caco-2, 1–100 µM, 24 h
Description: (§1) Cell viability was determined using the MTT assay. […] Samples were analyzed in triplicate.

RAW264.7 cells = experiment: Cell viability (MTT), direct effects, RAW264.7; format: cell-based, mouse; conditions: RAW264.7, 1–100 µM, 24 h
Description: as §1

Caco-2 cells [3] = experiment: Intracellular ROS (DCFH), t-BOOH-stressed Caco-2; format: cell-based, human; conditions: stressed Caco-2 (1 mM t-BOOH)
Description: The intracellular ROS levels were detected using the ROS-sensitive fluorescent dye, DCFH, as previously described. Caco-2 cells were plated in 48-well plates (density of 4.75 × 10^4 cells/well) and RAW264.7 cells in 24-well plates (density of 2.0 × 10^5 cells/well) and incubated for 7 days and 14 h, respectively. After this time, cells were treated with peptides as previously described for 24 h. Then, DCFH was dissolved in HBSS and added to cells at a final concentration of 5 µM solution. Cells were incubated for 30 min at 37 °C. The probe was removed, and cells were incubated with PBS (direct effects) or t-BOOH (protective effects) for 60 min, measuring the fluorescence after 60 min in a FLUOstar OPTIMA plate reader (BMG Labtech) with 485 nm excitation and 520 nm emission filters. The results were expressed as percentage of the control, which was considered as 100%. The assay was run in triplicate.

[4] = target: T1, angiotensin-converting enzyme (ACE); conditions: read-out: ACE inhibitory IC50, cited from earlier work
[5] = Oxygen radical absorbance capacity (ORAC)-FL assay; design: key to Antioxidant Activity ORAC, symbol: **: Antioxidant activity not detected at the highest peptide concentration analyzed (0.20 µmol); conditions: for Antioxidant Activity ORAC: mean ± SD
Description: An oxygen radical absorbance capacity (ORAC)-FL assay was used based on the protocol previously optimized. The reaction was performed at 37 °C in 75 mM phosphate buffer (pH 7.4). The final assay mixture volume was 200 µL, containing 70 nM FL, 12 mM AAPH, and antioxidant [(Trolox, 1–8 µM) or sample (at different concentrations)]. Fluorescence was measured during 137 min in a FLUOstar OPTIMA plate reader (BMG Labtech) with 485 nm excitation and 520 nm emission filters. The equipment was controlled by the FLUOstar Control ver. 1.32 R2 software for fluorescence measurement. Samples were analyzed in triplicate. The final ORAC-FL value was expressed as μmol Trolox equivalents (TE) per μmol peptide.

ABTS assay (TEAC) = conditions: mean ± SD
Description: Antioxidant activity was measured using a previously optimized method with some modifications. A mixture of 7 mM ABTS stock solution and 2.45 mM potassium persulfate was kept in the dark at room temperature for 12-16 h to form the ABTS radical cation (ABTS^•+). The ABTS^•+ solution was diluted in 5 mM of phosphate buffer solution (PBS) (pH 7.4) to an absorbance of 0.70 ± 0.02 at 734 nm at 30 °C. Two mL of diluted ABTS^•+ solution were mixed with 20 μL of sample or Trolox (0–0.015 μmol), and the absorbance was recorded at 734 nm after 10 min incubation at 30 °C. The Trolox equivalent antioxidant capacity (TEAC) value was expressed as μmol TE per μmol peptide. Each sample was analyzed in triplicate.

[6] = MBPDB; cited from earlier work
[7] = target: opioid, (3H)-naloxone binding; conditions: database value; read-out: Opioid agonist IC50, inhibition of (3H)-naloxone binding; cited from earlier work
[8] = mean ± SD, read-out: ACE Inhibitory Activity (IC50-µM)
[9] = highest peptide concentration analyzed 1000 µM, read-out: ACE Inhibitory Activity (IC50-µM), symbol

With YLGYLE [YLGYLE] the IC50 [1, 8] was 85.8 ± 4.66 µM, the “Cell viability, direct effect” value (Caco-2 cells [2]) was “did not evoke changes in cell viability” and the “Cell viability, direct effect” value (RAW264.7 cells) was “did not evoke changes in cell viability”. The “ROS levels (% control)” value (Caco-2 cells [3]; 1 µM peptide) was 175.06 ± 11.13% and the “ROS levels (% control)” value (Caco-2 cells [3]; 10 µM peptide) was 174.44 ± 11.60%.
For IPP [reference compound], the IC50 ([4]; literature value) is listed as 5 µM.
For `CC(C)C[C@H](NC(=O)[C@H](Cc1ccc(O)cc1)NC(=O)[C@@H](N)CCCNC(=N)N)C(=O)NCC(=O)O` [RYLG] (H-RYLG-OH; N-terminus and C-terminus assumed), the IC50 [1, 9] was greater than 1000 µM, the “Antioxidant Activity ORAC” value [5] was 1.70 ± 0.11 µmol TE/µmol peptide and the “Antioxidant Activity TEAC” value (ABTS assay (TEAC)) was 2.91 ± 0.21 µmol TE/µmol peptide. For the same molecule, the IC50 ([4]; database value) was 225 µM and the ORAC [6] was “ORAC = 1.67 µmol TE/µmol peptide **”.
For YGFLP [YGFLP], the IC50 [1, 8] is given as 272.39 ± 0.25 µM and the IC50 ([4]; literature value) is given as 260 µM.
In the case of VPP [reference compound], the IC50 ([4]; literature value) is given as 9 µM.
Work on YPFPGPIP yielded an IC50 [1, 8] of 224 ± 43.9 µM.
For `CC(C)C[C@H](NC(=O)[C@H](Cc1ccccc1)NC(=O)CNC(=O)[C@@H](N)Cc1ccc(O)cc1)C(=O)O` [YGFL], the IC50 [1, 8] was 292.5 ± 0.83 µM, the “Antioxidant Activity ORAC” value [5] was 1.42 ± 0.04 µmol TE/µmol peptide and the “Antioxidant Activity TEAC” value (ABTS assay (TEAC)) was 2.12 ± 0.03 µmol TE/µmol peptide.
`N[C@@H](Cc1ccc(O)cc1)C(=O)N1CCC[C@H]1C(=O)N[C@@H](Cc1c[nH]c2ccccc12)C(=O)O` [YPW] (H-Tyr-Pro-Trp-OH; N-terminus and C-terminus assumed) gave an IC50 [1, 9] greater than 1000 µM.
With `CC(C)C[C@H](N)C(=O)NCC(=O)N[C@@H](Cc1ccc(O)cc1)C(=O)O` [LGY] (H-Leu-Gly-Tyr-OH; N-terminus and C-terminus assumed) the IC50 [1, 8] was 26.1 ± 0.83 µM, the “Antioxidant Activity ORAC” value [5] was 2.00 ± 0.09 µmol TE/µmol peptide and the “Antioxidant Activity TEAC” value (ABTS assay (TEAC)) was 1.54 ± 0.01 µmol TE/µmol peptide. The IC50 ([4]; database value) was 21.5 µM and the ORAC [6] was “ORAC = 2.31 µmol TE/µmol peptide **”.
For `CC(C)C[C@H](NC(=O)[C@H](Cc1ccc(O)cc1)NC(=O)[C@@H](N)CCCNC(=N)N)C(=O)O` [RYL] (H-Arg-Tyr-Leu-OH; N-terminus and C-terminus assumed), the IC50 [1, 9] was greater than 1000 µM, the “Antioxidant Activity ORAC” value [5] was 1.72 ± 0.14 µmol TE/µmol peptide and the “Antioxidant Activity TEAC” value (ABTS assay (TEAC)) was 1.90 ± 0.03 µmol TE/µmol peptide. The IC50 ([4]; BIOPEP-UWM) was 3.31 µM, the IC50 ([4]; database value) was 107 µM and the ORAC [6] was “ORAC = 1.75 µmol TE/µmol peptide **”.
In the case of `CC(C)C[C@H](NC(=O)[C@@H](N)Cc1ccc(O)cc1)C(=O)NCC(=O)N[C@@H](Cc1ccc(O)cc1)C(=O)O` [YLGY] (H-YLGY-OH; N-terminus and C-terminus assumed), the IC50 [1, 8] is reported as 9.87 ± 0.31 µM, the “Antioxidant Activity ORAC” value [5] is reported as 2.96 ± 0.20 µmol TE/µmol peptide and the “Antioxidant Activity TEAC” value (ABTS assay (TEAC)) is reported as 2.14 ± 0.11 µmol TE/µmol peptide. The IC50 ([4]; database value) was 41.9 µM and the ORAC [6] was “ORAC = 1.46 µmol TE/µmol peptide **”.
In the case of AYFYPE [AYFYPE], the IC50 [1, 8] is listed as 774 ± 38.2 µM, the IC50 ([4]; BIOPEP-UWM and MBPDB) is listed as 106 µM and the IC50 ([4]; database value) is listed as 261 µM.
With `CC(C)C[C@H](NC(=O)CNC(=O)[C@@H](N)Cc1ccc(O)cc1)C(=O)N[C@@H](Cc1ccccc1)C(=O)O` [YGLF] (H-YGLF-OH; N-terminus and C-terminus assumed) the IC50 [1, 9] was greater than 1000 µM, the “Antioxidant Activity ORAC” value [5] was 0.89 ± 0.01 µmol TE/µmol peptide and the “Antioxidant Activity TEAC” value (ABTS assay (TEAC)) was 2.08 ± 0.06 µmol TE/µmol peptide. The IC50 ([4]; BIOPEP-UWM) was 733 µM and the IC50 [7] was 300 µM.
Molecule RYLGY [RYLGY] has an IC50 [1, 8] of 3.08 ± 0.11 µM.
With RYLGYLE [RYLGYLE] the IC50 [1, 9] was greater than 1000 µM, the “Cell viability, direct effect” value (Caco-2 cells [2]) was “did not evoke changes in cell viability” and the “Cell viability, direct effect” value (RAW264.7 cells) was “did not evoke changes in cell viability”.
For FYPEL [FYPEL], the IC50 [1, 8] is listed as 62 ± 6.27 µM and the IC50 ([4]; database value) is listed as 80.6 µM.
For YPFVE [YPFVE], the IC50 [1, 9] was greater than 1000 µM.
In the case of HLPLP [reference compound], the IC50 ([4]; literature value) is listed as 41 µM.
In the case of YFYPEL [YFYPEL], the IC50 [1, 8] is reported as 8.82 ± 0.58 µM, the “Cell viability, direct effect” value (Caco-2 cells [2]) is reported as “did not evoke changes in cell viability” and the “Cell viability, direct effect” value (RAW264.7 cells) is reported as “did not evoke changes in cell viability”. The “ROS levels (% control)” value (Caco-2 cells [3]; 1 µM peptide) was 168.88 ± 17.80%.
In the case of `CC(C)C[C@H](NC(=O)[C@@H](N)Cc1ccc(O)cc1)C(=O)NCC(=O)O` [YLG] (H-Tyr-Leu-Gly-OH; N-terminus and C-terminus assumed), the IC50 [1, 9] is reported as greater than 1000 µM, the “Antioxidant Activity ORAC” value [5] is reported as 0.93 ± 0.08 µmol TE/µmol peptide and the “Antioxidant Activity TEAC” value (ABTS assay (TEAC)) is reported as 1.40 ± 0.04 µmol TE/µmol peptide. For the same molecule, the ORAC [6] was “ORAC = 1.38 µmol TE/µmol peptide **”.
For `CC(C)C[C@H](NC(=O)[C@@H](N)CC(C)C)C(=O)N[C@@H](Cc1ccccc1)C(=O)O` [LLF] (H-Leu-Leu-Phe-OH; N-terminus and C-terminus assumed), the IC50 [1, 8] is given as 94.8 ± 2.97 µM, the “Antioxidant Activity ORAC, symbol” value ([5]; highest peptide concentration analyzed 0.20 µmol) is given as “**” and the IC50 ([4]; BIOPEP-UWM) is given as 79.8 µM.
For YPFPGPI [YPFPGPI], the IC50 [1, 8] is given as 686 ± 103 µM and the IC50 ([4]; MBPDB) is given as 500 µM.
YPVEPF [YPVEPF] gave an IC50 [1, 9] greater than 1000 µM.
YPFVEP [YPFVEP] showed an IC50 [1, 8] of 7.48 ± 0.03 µM.
